Values quoted from earlier work, collected in publication PMC9230797, “Integration of a Physiologically Based Pharmacokinetic and Pharmacodynamic Model for Tegoprazan and Its Metabolite: Application for Predicting Food Effect and Intragastric pH Alterations” (Pharmaceutics, 2022).
Read-outs that look alike come from different tables or passages of the source.

Experiments:
[1] = design: method as in PMID 19006606; conditions: cited from earlier work
[2] = cited from earlier work
[3] = design: method as in PMID 28378544; conditions: cited from earlier work

SMILES: COc1ccc2[nH]c([S+]([O-])Cc3ncc(C)c(OC)c3C)nc2n1 (stereo not drawn) [tenatoprazole]
- plasma half-life [1]: up to 9 h

SMILES: COCCCOc1ccnc(C[S+]([O-])c2nc3ccccc3[nH]2)c1C (stereo not drawn) [rabeprazole]
- PK parameters (Tmax, AUC, half-life, Cmax) after a high-fat meal [2]: tended to fluctuate significantly

SMILES: CNCc1cc(-c2ccccc2F)n(S(=O)(=O)c2cccnc2)c1 [vonoprazan]
- effect of food intake on PK parameters [2]: not significantly affected

SMILES: COc1ccnc(C[S+]([O-])c2nc3ccc(OC(F)F)cc3[nH]2)c1OC (stereo not drawn) [pantoprazole]
- PK parameters (Tmax, AUC, half-life, Cmax) after a high-fat meal [2]: tended to fluctuate significantly

SMILES: COc1ccc2[nH]c([S+]([O-])Cc3ncc(C)c(OC)c3C)nc2c1 (stereo not drawn) [omeprazole]
- PK parameters (Tmax, AUC, half-life, Cmax) after a high-fat meal [2]: tended to fluctuate significantly
- mean AUC0–12 h ([3]; CYP2C19 EM, multiple administrations): 1715 ng·h/mL
- mean AUC0–12 h ([3]; CYP2C19 EM, single administration): 713.5 ng·h/mL
- mean AUC0–12 h ([3]; CYP2C19 IM, multiple administrations): 2087 ng·h/mL
- mean AUC0–12 h ([3]; CYP2C19 IM, single administration): 972.5 ng·h/mL
- mean AUC0–12 h ([3]; CYP2C19 PM, multiple administrations): 3669 ng·h/mL
- mean AUC0–12 h ([3]; CYP2C19 PM, single administration): 3652 ng·h/mL
- AUC0–12 h ratio PM vs EM ([3]; multiple administrations): 2.14 fold
- AUC0–12 h ratio PM vs IM ([3]; multiple administrations): 1.76 fold
- AUC0–12 h ratio PM vs EM ([3]; single administration): 5.12 fold
- AUC0–12 h ratio PM vs IM ([3]; single administration): 3.76 fold
